Experimental data from patent US20210177814A1, “USE OF GUANABENZ OR DERIVATES THEREOF FOR THE TREATMENT OF TYPE I IFN-DEPENDENT PATHOLOGIES” (INSERM (Institut National de la Santé et de la Recherche …, priority 2018, published 2021).

Target: T1, TLR9 (Mus musculus, UniProt Q9EQU3)
T1 construct: from tissue; host or cells: whole animal: C57BL/6, FVB and FVB GADD34ΔC/ΔC mice
T1 sequence (Q9EQU3 26-1032): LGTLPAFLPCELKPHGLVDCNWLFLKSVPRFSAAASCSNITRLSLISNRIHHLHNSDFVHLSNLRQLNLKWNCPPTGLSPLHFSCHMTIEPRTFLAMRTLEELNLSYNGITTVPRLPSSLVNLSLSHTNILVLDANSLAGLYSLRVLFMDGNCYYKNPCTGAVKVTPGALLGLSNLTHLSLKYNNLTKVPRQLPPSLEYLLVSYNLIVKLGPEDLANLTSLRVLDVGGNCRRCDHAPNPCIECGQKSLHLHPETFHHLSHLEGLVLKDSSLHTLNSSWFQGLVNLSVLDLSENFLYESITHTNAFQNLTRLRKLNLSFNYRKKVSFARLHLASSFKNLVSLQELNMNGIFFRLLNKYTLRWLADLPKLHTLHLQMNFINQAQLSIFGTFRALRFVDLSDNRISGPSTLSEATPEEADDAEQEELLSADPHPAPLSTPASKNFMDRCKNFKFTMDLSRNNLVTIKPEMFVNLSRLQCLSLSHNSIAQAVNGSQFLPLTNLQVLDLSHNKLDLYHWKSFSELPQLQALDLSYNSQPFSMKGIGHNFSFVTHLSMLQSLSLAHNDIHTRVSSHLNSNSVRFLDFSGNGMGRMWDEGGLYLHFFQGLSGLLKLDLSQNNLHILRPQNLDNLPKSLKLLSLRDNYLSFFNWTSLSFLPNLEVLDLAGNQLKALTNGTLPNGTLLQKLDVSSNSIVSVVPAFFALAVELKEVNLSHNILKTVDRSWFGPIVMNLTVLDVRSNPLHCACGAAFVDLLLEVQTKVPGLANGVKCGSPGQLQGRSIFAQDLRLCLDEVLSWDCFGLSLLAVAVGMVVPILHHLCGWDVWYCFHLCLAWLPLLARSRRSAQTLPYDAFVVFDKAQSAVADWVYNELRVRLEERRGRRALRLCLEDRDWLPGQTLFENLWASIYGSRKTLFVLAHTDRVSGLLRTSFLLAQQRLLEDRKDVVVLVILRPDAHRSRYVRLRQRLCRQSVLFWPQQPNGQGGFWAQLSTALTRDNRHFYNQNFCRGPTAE
Assay: D-galN/CpG ODN 1826 cytokine shock model
Format: in vivo
Procedure: WT and GADD34^ΔC/ΔC mice were injected with D-galN (20 mg/mouse), CpG ODN 1826 or PBS for control mice (50 μg/20 g), GBZ or clonidine (2 mg/kg). (A) Survival of C57/BL6 mice is represented as total percentage of survival after 48 h or in a Kaplan-Meier plot. (B) Survival of FVB (WT) and FVB GADD34^ΔC/ΔC mice is represented as total percentage of survival after 48 h or in a Kaplan-Meier plot. (C) The concentration of circulating TNF-α, IL-10 and IL-6 in C57/BL6 mice was measured after 1 h and/or 3 h of CpG ODN 1826. (D) Liver tissue damage and histology score were blindly determined by a professional anatomopathologist. Statistical significance was assigned on sample comparison by a one-way ANOVA, followed by Tukey range test and on the survival curve using log-rank test, followed by Benjamini-Yekutieli correction (* p<0.05; ** p<0.005; ***p<0.0005.).
Wild type female mice C57BL/6 of 8 weeks of age were injected i.p. with 2 mg/kg of GBZ, clonidine or PBS/DMSO. One hour later, they were injected i.p. with 20 mg/mouse of d-GalN and ODN 1826 50 μg/20 g (or PBS). Mice survival was checked every 12 hours for up to 48 hours. For some experiments, blood sera were collected 1 and 3 h after the injection of D-galN. The serum was used to measure circulating cytokines (TNFα, IL-6, IFNβ IL-10, IL-12). For some experiments, the liver was collected for immunohistochemistry after two days. For i.p. injections, 1 ml syringes and 25 gauge needles were used. Blood was collected from the cheek with a 18 gauge needle; for the TMPD model, no more than 200 μL were collected each time, respecting the ethic statement.
Mouse kidney and liver were fixed in 10% buffered formalin for 24 h, then the tissues were dehydrated and embedded in paraffin. Tissue sections of 3.5 μm were cut using the microtom Leica RM2245. Hematoxylin-eosin staining was effectuated automatically with Leica autostainer XL. Finally, the slides were mounted with entellan and kept at room temperature. Biopsies were analyzed by an anatomopathologist and the clinical score was assigned in a blinded way. Pictures were taken with Nikon Eclipse.
• a) Lobular inflammation • 0—no inflammation, 1—mild lobular inflammation (<10% of liver parenchyma), 2—moderate lobular inflammation (10-50% of liver parenchyma), 3—severe lobular inflammation (>50% of liver parenchyma) • b) Portal inflammation • 0—no portal inflammation, 1—mild portal inflammation (<⅓ of portal tracts), 2—moderate portal inflammation (approximately 50% of portal tracks), 3—severe portal inflammation (>⅔ of portal tracts) • Portal and lobular inflammation score are added=inflammation score • c) Necrosis • 0—No necrosis, 1—<10% necrosis of liver parenchyma, 2—10-25% necrosis of liver parenchyma, 3—25% necrosis of liver parenchyma • Inflammation score and necrosis score are added=Total histologic score

[1] = WT mice, 1 hour after CpG injection, 2 mg/kg

## NC(N)=N/N=C/c1c(Cl)cccc1Cl [GBZ, 2-(2,6-dichlorobenzylidene)-hydrazinecarboximidamide]
C57BL/6 WT mice, D-galN + CpG ODN 1826, compound 2 mg/kg i.p.
  survival after 48 h: up to 70%
CpG-induced lethality, GBZ 2 mg/kg
  liver cells survival (liver examination and histological scores): little direct protective effect
FVB GADD34ΔC/ΔC mice, D-galN + CpG, GBZ 2 mg/kg
  survival: protected from death
GADD34ΔC/ΔC vs WT mice, GBZ 2 mg/kg
  decrease in efficiency of protection in GADD34ΔC/ΔC mice: ~28%
WT mice after CpG injection, GBZ 2 mg/kg
  production of IL-10: strongly increased
[1]
  circulating IL-6 plasma concentration: strongly attenuated
  circulating TNF-α plasma concentration: strongly attenuated
